We go through 29 molecules from patent publication US10357493B2, “Metalloenzyme inhibitor compounds” (Selenity Therapeutics (Bermuda), Ltd., priority 2017, dated 2019).

One assay deals with HDAC6 (Homo sapiens (Human), UniProt Q9UBN7). Briefly: HDAC6 enzymatic assay. Format: biochemical. The settings on record: read-out: Human HDAC6 IC50. Summed up: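 Following a 17 hour room-temperature incubation of 2 ng HDAC6 with 10 uM substrate and compound, 50 μl developer was added for another 20 minutes, and fluorescence (excitation 360 nm, emission 460 nm) was recorded. Activity was normalized to no-compound (100%) and no-enzyme (0%) wells, and IC50 came from sigmoidal dose-response fitting in Graphpad Prism.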

The next assay has as its target HDAC1 (Homo sapiens (Human), UniProt Q13547). Put plainly: HDAC1 enzymatic assay. As to conditions: read-out: Human HDAC1 IC50. Format: biochemical. The method in brief:
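Compound inhibition of human HDAC1 (0.5 ng enzyme, 10 uM substrate) was assessed by fluorescence after developer treatment, excitation 360 nm and emission 460 nm. Percent activity was normalized to no-compound (100%) and no-enzyme (0%) controls, plotted against concentration, and fitted to a sigmoidal dose-response curve in Graphpad Prism to obtain IC50 at half-maximal activity.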

The pIC50 is the IC50 on a negative log10 scale, so that one unit is a factor of ten.

Molecules are shown by their SMILES. pIC50: −log10 of the molar value.

HDAC1, sequence (Q13547 whole entry): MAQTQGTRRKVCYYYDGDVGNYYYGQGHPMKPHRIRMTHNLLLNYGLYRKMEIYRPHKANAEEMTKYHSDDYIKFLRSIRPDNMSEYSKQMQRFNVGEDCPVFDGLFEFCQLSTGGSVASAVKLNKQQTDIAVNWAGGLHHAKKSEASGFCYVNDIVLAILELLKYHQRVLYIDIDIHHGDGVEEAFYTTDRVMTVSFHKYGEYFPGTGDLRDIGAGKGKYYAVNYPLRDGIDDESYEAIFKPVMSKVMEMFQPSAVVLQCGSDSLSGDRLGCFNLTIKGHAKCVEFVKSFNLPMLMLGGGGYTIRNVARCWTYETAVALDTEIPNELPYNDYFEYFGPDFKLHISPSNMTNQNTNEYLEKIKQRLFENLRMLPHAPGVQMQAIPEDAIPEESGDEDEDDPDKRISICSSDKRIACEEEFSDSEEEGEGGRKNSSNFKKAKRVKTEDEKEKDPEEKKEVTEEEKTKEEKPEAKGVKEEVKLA
HDAC6, sequence (Q9UBN7 whole entry): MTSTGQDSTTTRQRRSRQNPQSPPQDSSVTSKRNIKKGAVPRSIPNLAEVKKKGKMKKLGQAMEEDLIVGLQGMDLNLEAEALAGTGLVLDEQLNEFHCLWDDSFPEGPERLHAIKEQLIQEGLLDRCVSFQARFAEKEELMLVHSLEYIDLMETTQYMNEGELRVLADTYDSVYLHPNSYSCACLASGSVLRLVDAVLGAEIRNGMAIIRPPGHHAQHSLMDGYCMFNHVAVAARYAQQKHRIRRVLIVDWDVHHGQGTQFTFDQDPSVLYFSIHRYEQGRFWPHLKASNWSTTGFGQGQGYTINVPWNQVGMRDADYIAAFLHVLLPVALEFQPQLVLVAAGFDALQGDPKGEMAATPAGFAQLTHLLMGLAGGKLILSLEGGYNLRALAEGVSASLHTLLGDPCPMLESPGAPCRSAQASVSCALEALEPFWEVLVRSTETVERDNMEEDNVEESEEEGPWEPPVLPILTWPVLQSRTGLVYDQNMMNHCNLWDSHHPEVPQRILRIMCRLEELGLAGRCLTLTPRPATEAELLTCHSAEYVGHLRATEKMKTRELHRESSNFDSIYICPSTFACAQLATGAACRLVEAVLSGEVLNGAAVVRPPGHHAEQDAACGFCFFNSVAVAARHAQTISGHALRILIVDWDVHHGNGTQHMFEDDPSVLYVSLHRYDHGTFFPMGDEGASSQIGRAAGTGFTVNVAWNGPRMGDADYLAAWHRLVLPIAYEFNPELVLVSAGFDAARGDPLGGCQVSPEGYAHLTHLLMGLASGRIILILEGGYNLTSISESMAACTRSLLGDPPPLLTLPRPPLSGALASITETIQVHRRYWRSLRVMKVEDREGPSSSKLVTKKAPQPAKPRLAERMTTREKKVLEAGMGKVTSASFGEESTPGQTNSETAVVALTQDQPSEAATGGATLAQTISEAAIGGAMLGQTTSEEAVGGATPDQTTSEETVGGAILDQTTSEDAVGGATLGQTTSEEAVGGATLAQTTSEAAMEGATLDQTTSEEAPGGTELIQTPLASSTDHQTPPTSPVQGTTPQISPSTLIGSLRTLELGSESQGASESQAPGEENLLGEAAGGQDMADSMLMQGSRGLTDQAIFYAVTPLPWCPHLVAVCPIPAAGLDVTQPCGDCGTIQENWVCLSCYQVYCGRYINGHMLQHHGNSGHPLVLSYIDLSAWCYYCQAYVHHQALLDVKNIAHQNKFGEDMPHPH

For the molecule `CS(=O)(=O)NCc1ccc(C2(Nc3ncc(-c4nnc(C(F)F)o4)cn3)CC2)cc1` [Example 69, N-(4-(1-((5-(5-(difluoromethyl)-1,3,4-oxadiazol-2-yl)pyrimidin-2-yl)amino)cyclopropyl)benzyl) methanesulfonamide], the pIC50 at HDAC6 is 6.89; at HDAC1, under 4.52.

For the molecule `Fc1cc(OC(F)(F)F)ccc1C1(Nc2ncc(-c3nnc(C(F)F)o3)cn2)CC1` [Example 70, 5-(5-(difluoromethyl)-1,3,4-oxadiazol-2-yl)-N-(1-(2-fluoro-4-(trifluoromethoxy)phenyl)cyclopropyl)pyrimidin-2-amine], the pIC50 was 7.00 on HDAC6 and under 4.52 at HDAC1.

Take `Fc1cc(C(F)(F)F)ccc1C1(Nc2ncc(-c3nnc(C(F)F)o3)cn2)CC1` [Example 71, 5-(5-(difluoromethyl)-1,3,4-oxadiazol-2-yl)-N-(1-(2-fluoro-4-(trifluoromethyl)phenyl)cyclopropyl)pyrimidin-2-amine]: the pIC50 was 7.00 on HDAC6 and under 4.52 at HDAC1.

For `Fc1cc(F)cc(C2(Nc3ncc(-c4nnc(C(F)F)o4)cn3)CC2)c1` [Example 72, 5-(5-(difluoromethyl)-1,3,4-oxadiazol-2-yl)-N-(1-(3,5-difluorophenyl)cyclopropyl) pyrimidin-2-amine], the pIC50 on HDAC6 is 7.46; on HDAC1, under 4.52.

For `Fc1c(Cl)cccc1C1(Nc2ncc(-c3nnc(C(F)F)o3)cn2)CC1` [Example 73, N-(1-(3-chloro-2-fluorophenyl)cyclopropyl)-5-(5-(difluoromethyl)-1,3,4-oxadiazol-2-yl)pyrimidin-2-amine], the pIC50 at HDAC6 is 7.77; on HDAC1 it was under 4.52.

`Fc1cc(F)c(C2(Nc3ncc(-c4nnc(C(F)F)o4)cn3)CC2)c(F)c1` [Example 74, 5-(5-(difluoromethyl)-1,3,4-oxadiazol-2-yl)-N-(1-(2,4,6-trifluorophenyl)cyclopropyl) pyrimidin-2-amine]: the pIC50 was 7.72 on HDAC6 and under 4.52 on HDAC1.

In the case of `Fc1ccc(OC(F)(F)F)cc1C1(Nc2ncc(-c3nnc(C(F)F)o3)cn2)CC1` [Example 75, 5-(5-(difluoromethyl)-1,3,4-oxadiazol-2-yl)-N-(1-(2-fluoro-5-(trifluoromethoxy)phenyl)cyclopropyl)pyrimidin-2-amine], the negative logarithm of the IC50 (pIC50) at HDAC6 was 7.42; at HDAC1, under 4.52.

On to `Fc1ccc(Cl)cc1C1(Nc2ncc(-c3nnc(C(F)F)o3)cn2)CC1` [Example 76, N-(1-(5-chloro-2-fluorophenyl)cyclopropyl)-5-(5-(difluoromethyl)-1,3,4-oxadiazol-2-yl)pyrimidin-2-amine], for which the pIC50 at HDAC6 was 7.85; at HDAC1 it was under 4.52.

Regarding `Cc1cccc(C2(Nc3ncc(-c4nnc(C(F)F)o4)cn3)CC2)c1Cl` [Example 77, N-(1-(2-chloro-3-methylphenyl)cyclopropyl)-5-(5-(difluoromethyl)-1,3,4-oxadiazol-2-yl)pyrimidin-2-amine], the pIC50 on HDAC6 is 7.55; on HDAC1, under 4.52.

With `O=C(NCC(Nc1ncc(-c2nnc(C(F)F)o2)cn1)c1ccc(F)cc1)c1ccccc1` (stereo not shown) [Example 79, N-(2-((5-(5-(difluoromethyl)-1,3,4-oxadiazol-2-yl)pyrimidin-2-yl)amino)-2-(4-fluorophenyl)ethyl)benzamide], the pIC50 on HDAC6 was 7.12; on HDAC1, under 4.52.

Turning to `Fc1ccc(Cl)c(C2(Nc3ncc(-c4nnc(C(F)F)o4)cn3)CC2)c1` [Example 80, N-(1-(2-chloro-5-fluorophenyl)cyclopropyl)-5-(5-(difluoromethyl)-1,3,4-oxadiazol-2-yl)pyrimidin-2-amine], the pIC50 on HDAC6 was 7.64; on HDAC1, under 4.52.

`FC(F)c1nnc(-c2cnc(NC3(c4cc(C(F)(F)F)ccc4Cl)CC3)nc2)o1` [Example 81, N-(1-(2-chloro-5-(trifluoromethyl)phenyl)cyclopropyl)-5-(5-(difluoromethyl)-1,3,4-oxadiazol-2-yl)pyrimidin-2-amine]: the pIC50 on HDAC6 was 6.68; on HDAC1, under 4.52.

`FC(F)c1nnc(-c2cnc(NC3(c4ccnc(Br)c4)CC3)nc2)o1` [Example 82, N-(1-(2-bromopyridin-4-yl)cyclopropyl)-5-(5-(difluoromethyl)-1,3,4-oxadiazol-2-yl)pyrimidin-2-amine]: the pIC50 at HDAC6 was 7.46; at HDAC1, under 4.52.

Take `N#Cc1cc(C2(Nc3ncc(-c4nnc(C(F)F)o4)cn3)CC2)ccn1` [Example 83, 4-(1-((5-(5-(difluoromethyl)-1,3,4-oxadiazol-2-yl)pyrimidin-2-yl)amino)cyclopropyl)picolinonitrile]: the negative logarithm of the IC50 (pIC50) at HDAC6 is 6.80; at HDAC1, under 4.52.

Turning to `Fc1cc(OCC(F)(F)F)ccc1C1(Nc2ncc(-c3nnc(C(F)F)o3)cn2)CC1` [Example 84, 5-(5-(difluoromethyl)-1,3,4-oxadiazol-2-yl)-N-(1-(2-fluoro-4-(2,2,2-trifluoroethoxy)phenyl)cyclopropyl)pyrimidin-2-amine], the negative-log IC50 (pIC50) is 7.11 on HDAC6 and under 4.52 at HDAC1.

In the case of `FC(F)c1nnc(-c2cnc(NC3(c4cccc(C(F)(F)F)c4Cl)CC3)nc2)o1` [Example 85, N-(1-(2-chloro-3-(trifluoromethyl)phenyl)cyclopropyl)-5-(5-(difluoromethyl)-1,3,4-oxadiazol-2-yl)pyrimidin-2-amine], the results for the pIC50 at HDAC6 and at HDAC1 were 7.21 and under 4.52, respectively.

With `FC(F)Oc1cccc(C2(Nc3ncc(-c4nnc(C(F)F)o4)cn3)CC2)c1Cl` [Example 86, N-(1-(2-chloro-3-(difluoromethoxy)phenyl)cyclopropyl)-5-(5-(difluoromethyl)-1,3,4-oxadiazol-2-yl)pyrimidin-2-amine], the pIC50 at HDAC6 is 7.55; at HDAC1 it was under 4.52.

For `FC(F)c1nnc(-c2cnc(NC3(c4cccc(OCC(F)(F)F)c4Cl)CC3)nc2)o1` [Example 87, N-(1-(2-chloro-3-(2,2,2-trifluoroethoxy)phenyl)cyclopropyl)-5-(5-(difluoromethyl)-1,3,4-oxadiazol-2-yl)pyrimidin-2-amine], the negative-log IC50 (pIC50) at HDAC6 was 6.92; at HDAC1, under 4.52.

As for `Fc1ccc(C2(Nc3ncc(-c4nnc(C(F)F)o4)cn3)CCC2)cc1` [Example 88], the values for the pIC50 on HDAC6 and on HDAC1 were 7.54 and under 4.52, respectively.

For the molecule `FC(F)c1nnc(-c2cnc(NC3(c4cc(OCC(F)(F)F)ccc4Cl)CC3)nc2)o1` [Example 89, N-(1-(2-chloro-5-(2,2,2-trifluoroethoxy)phenyl)cyclopropyl)-5-(5-(difluoromethyl)-1,3,4-oxadiazol-2-yl)pyrimidin-2-amine], the pIC50 was 7.00 on HDAC6 and under 4.52 at HDAC1.

Consider `Cc1ccc(Cl)c(C2(Nc3ncc(-c4nnc(C(F)F)o4)cn3)CC2)c1` [Example 90, N-(1-(2-chloro-5-methylphenyl)cyclopropyl)-5-(5-(difluoromethyl)-1,3,4-oxadiazol-2-yl)pyrimidin-2-amine], for which the negative logarithm of the IC50 (pIC50) at HDAC6 is 7.46; at HDAC1, under 4.52.

Take `Fc1cccc(C2(Nc3ncc(-c4nnc(C(F)F)o4)cn3)CC2)c1Cl` [Example 91, N-(1-(2-chloro-3-fluorophenyl)cyclopropyl)-5-(5-(difluoromethyl)-1,3,4-oxadiazol-2-yl)pyrimidin-2-amine]: the pIC50 on HDAC6 was 7.68; at HDAC1, under 4.52.

As for `CC(O)C(Nc1ncc(-c2nnc(C(F)F)o2)cn1)c1ccc(F)cc1F` (stereo not shown) [Example 93, 1-((5-(5-(difluoromethyl)-1,3,4-oxadiazol-2-yl)pyrimidin-2-yl)amino)-1-(2,4-difluorophenyl)propan-2-ol], the results for the pIC50 at HDAC6 and at HDAC1 were 7.37 and under 4.52, respectively.

Consider `NCC(Nc1ncc(-c2nnc(C(F)F)o2)cn1)c1ccc(F)cc1` (stereo not shown) [Example 96, N1-(5-(5-(difluoromethyl)-1,3,4-oxadiazol-2-yl)pyrimidin-2-yl)-1-(4-fluorophenyl)ethane-1,2-diamine], for which the pIC50 at HDAC6 is 7.24; on HDAC1 it was under 4.52.

With `CC(C)(Nc1ncc(-c2nnc(C(F)F)o2)cn1)c1ccc(F)cc1F` [Example 97, 5-(5-(difluoromethyl)-1,3,4-oxadiazol-2-yl)-N-(2-(2,4-difluorophenyl)propan-2-yl)pyrimidin-2-amine], the pIC50 on HDAC6 was 7.47; on HDAC1 it was under 4.52.

As for `CC(C)(Nc1ncc(-c2nnc(C(F)F)o2)cn1)c1c(F)cccc1F` [Example 98, 5-(5-(difluoromethyl)-1,3,4-oxadiazol-2-yl)-N-(2-(2,6-difluorophenyl)propan-2-yl)pyrimidin-2-amine], the pIC50 is 7.80 at HDAC6 and under 4.52 at HDAC1.

With `C[C@H](Nc1ncc(-c2nnc(C(F)F)o2)cn1)c1ccc(F)cc1F` [Example 99-S], the pIC50 on HDAC6 is under 6.00; at HDAC1, under 4.52.

For `Fc1cccc(F)c1C(CC(F)(F)F)Nc1ncc(-c2nnc(C(F)F)o2)cn1` (stereo not shown) [Example 102, 5-(5-(difluoromethyl)-1,3,4-oxadiazol-2-yl)-N-(1-(2,6-difluorophenyl)-3,3,3-trifluoropropyl)pyrimidin-2-amine], the pIC50 on HDAC6 was 7.04; on HDAC1, under 4.52.

In the case of `COc1cc(F)c(C2(Nc3ncc(-c4nnc(C(F)F)o4)cn3)CC2)c(F)c1` [Example 106, N-(1-(2,6-difluoro-4-methoxyphenyl)cyclopropyl)-5-(5-(difluoromethyl)-1,3,4-oxadiazol-2-yl)pyrimidin-2-amine], the pIC50 is 7.80 at HDAC6 and under 4.52 on HDAC1.
